Test results taken from patent US20050234531A1, “Method to treat age-related macular degeneration” (priority 2001, published 2005).

Tested on: age-related macular degeneration (AMD)
Experiment: PDT with verteporfin combined with scatter threshold laser coagulation therapy in eighteen patients with AMD or early stage AMD
Assay type: in vivo
Protocol: Eighteen patients ranging in age from 50-80 years of age, and either previously diagnosed with AMD or with early stage AMD have been treated using the inventive method. All of these patients experienced at least some loss of vision pre-treatment.
For PDT, verteporfin was the photosensitive agent and was administered intravenously at a dose of 1-2 mg/kg. Verteporfin was activated using a coherent laser with the red beam (krypton) at a wavelength of 640 nm. For laser coagulation therapy, the spot size was 200 μm and the duration was 0.4 seconds. The number of spots applied was between 150 and 350. The interval between PDT and laser coagulation therapy was 5 minutes to 24 hours.

Substance: verteporfin
- Patients with improved visual acuity, as assessed by accurate reading of a standard vision chart (verteporfin 1-2 mg/kg intravenously, activated at 640 nm, plus laser coagulation therapy 5 minutes to 24 hours apart, within six to eight weeks post-treatment, 18 patients): fifty
- Incidence of the need for retreatment (verteporfin PDT plus laser coagulation therapy, entire patient population treated): zero
- Patients whose vision remained stable, assessed by no further loss of visual acuity (verteporfin PDT plus laser coagulation therapy, over six to nine months, 18 patients): fifty
- Cases of laser-induced neovascularizations (verteporfin PDT plus laser coagulation therapy, patients receiving the inventive treatment): no cases
